Reference: patent US20240182465A1 (GENFLEET THERAPEUTICS (SHANGHAI) INC., priority 2021, published 2024)
Structures can show the parent of a compound that is named as a salt.

Experiments:
HPK1 [1] = target: T1, HPK1 (Homo sapiens, UniProt Q92918); test: HPK1 kinase activity assay (ADP-Glo); settings: HPK1 Kinase activity IC50 (nM), 1 nM HPK1, 10 μM ATP, 0.1 μg/μL MBP
T1 sequence (Q92918 1-346 limits assumed): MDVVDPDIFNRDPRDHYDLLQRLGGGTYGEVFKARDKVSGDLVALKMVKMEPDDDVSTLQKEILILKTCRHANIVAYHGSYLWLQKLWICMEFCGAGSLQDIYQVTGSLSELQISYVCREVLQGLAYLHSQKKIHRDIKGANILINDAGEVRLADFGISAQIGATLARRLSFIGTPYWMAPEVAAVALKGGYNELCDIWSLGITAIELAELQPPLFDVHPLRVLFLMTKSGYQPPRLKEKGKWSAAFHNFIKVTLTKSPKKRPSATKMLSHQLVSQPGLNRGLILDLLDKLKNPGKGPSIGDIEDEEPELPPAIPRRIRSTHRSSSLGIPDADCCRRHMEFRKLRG

HPK1 [2] = target: HPK1 (Homo sapiens, UniProt Q92918); test: SLP76 phosphorylation assay (intracellular HPK1 inhibitory activity, p-SLP76 Ser376 sandwich ELISA); settings: p-SLP76 IC50(nM), Jurkat, Clone E6-1 cells; 1 h compound pre-incubation, anti-CD3 beads stimulation 20 min; SLP76 phosphorylation at S376
Target sequence in this assay (Q92918 whole entry): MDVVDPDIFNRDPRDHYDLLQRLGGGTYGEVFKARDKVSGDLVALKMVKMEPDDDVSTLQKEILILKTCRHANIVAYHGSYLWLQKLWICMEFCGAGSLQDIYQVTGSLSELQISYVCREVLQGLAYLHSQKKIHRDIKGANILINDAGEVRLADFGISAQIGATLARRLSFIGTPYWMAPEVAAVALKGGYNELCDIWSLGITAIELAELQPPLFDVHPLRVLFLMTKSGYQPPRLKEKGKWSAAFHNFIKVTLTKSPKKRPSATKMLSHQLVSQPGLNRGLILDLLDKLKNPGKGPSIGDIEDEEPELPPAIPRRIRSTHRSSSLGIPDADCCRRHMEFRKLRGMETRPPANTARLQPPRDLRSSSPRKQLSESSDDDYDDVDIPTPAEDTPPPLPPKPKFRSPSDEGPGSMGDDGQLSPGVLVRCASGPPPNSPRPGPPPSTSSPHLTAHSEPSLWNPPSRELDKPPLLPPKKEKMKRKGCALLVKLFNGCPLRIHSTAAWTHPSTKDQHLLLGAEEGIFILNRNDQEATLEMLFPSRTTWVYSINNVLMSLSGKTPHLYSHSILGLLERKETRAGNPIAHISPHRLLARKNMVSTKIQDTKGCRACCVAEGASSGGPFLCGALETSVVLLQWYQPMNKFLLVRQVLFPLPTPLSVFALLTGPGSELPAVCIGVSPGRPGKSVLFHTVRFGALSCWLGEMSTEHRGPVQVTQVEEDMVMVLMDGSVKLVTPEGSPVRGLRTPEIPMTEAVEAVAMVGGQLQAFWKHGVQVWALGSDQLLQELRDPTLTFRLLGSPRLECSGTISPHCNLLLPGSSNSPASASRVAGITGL

SMILES: Cc1c[nH]c2ncc(-c3cc([C@@H]4CCCN4)c4cnccc4c3)cc12 (single isomer, unassigned) [Compound Z3-1]
- IC50 (HPK1 [1]): 231 nM
- IC50 (HPK1 [2]): > 10000 nM

SMILES: Cc1c[nH]c2ncc(-c3cc([C@H]4CCCN4)c4cnccc4c3)cc12 (single isomer, unassigned) [Compound Z3-2]
- IC50 (HPK1 [1]): 3.37 nM
- IC50 (HPK1 [2]): 604 nM

SMILES: Nc1ncc(-c2cc3c(c([C@H]4CCCN4)c2)COCC3)cc1-c1cn[nH]c1 (single isomer, unassigned) [Compound Z93-1]
- IC50 (HPK1 [1]): 163 nM

SMILES: Nc1ncc(-c2cc3c(c([C@@H]4CCCN4)c2)COCC3)cc1-c1cn[nH]c1 (single isomer, unassigned) [Compound Z93-2]
- IC50 (HPK1 [1]): 0.71 nM
- IC50 (HPK1 [2]): 235 nM

SMILES: CC(C)c1c[nH]c2ncc(-c3cc([C@H]4CCCN4)c4cnccc4c3)cc12 (single isomer, unassigned) [Compound Z95-1]
- IC50 (HPK1 [1]): 18.4 nM

SMILES: CC(C)c1c[nH]c2ncc(-c3cc([C@@H]4CCCN4)c4cnccc4c3)cc12 (single isomer, unassigned) [Compound Z95-2]
- IC50 (HPK1 [1]): 1.45 nM
- IC50 (HPK1 [2]): 623 nM

SMILES: Cc1c[nH]c2ncc(-c3cc4c(c([C@H]5CCCN5)c3)COCC4)cc12 (single isomer, unassigned) [Compound Z97-1]
- IC50 (HPK1 [1]): 120 nM

SMILES: Cc1c[nH]c2ncc(-c3cc4c(c([C@@H]5CCCN5)c3)COCC4)cc12 (single isomer, unassigned) [Compound Z97-2]
- IC50 (HPK1 [1]): 0.67 nM
- IC50 (HPK1 [2]): 164 nM

SMILES: CC(=O)N1CCc2cc(-c3cnc4[nH]cc(C)c4c3)cc([C@H]3CCCN3)c2C1 (single isomer, unassigned) [Compound Z98-1]
- IC50 (HPK1 [1]): 49.4 nM

SMILES: CC(=O)N1CCc2cc(-c3cnc4[nH]cc(C)c4c3)cc([C@@H]3CCCN3)c2C1 (single isomer, unassigned) [Compound Z98-2]
- IC50 (HPK1 [1]): 0.5 nM
- IC50 (HPK1 [2]): 152 nM

SMILES: N#CCc1c[nH]c2ncc(-c3cc4c(c([C@H]5CCCN5)c3)COCC4)cc12 (single isomer, unassigned) [Compound Z101-1]
- IC50 (HPK1 [1]): 42.7 nM

SMILES: N#CCc1c[nH]c2ncc(-c3cc4c(c([C@@H]5CCCN5)c3)COCC4)cc12 (single isomer, unassigned) [Compound Z101-2]
- IC50 (HPK1 [1]): 0.99 nM
- IC50 (HPK1 [2]): 111 nM

SMILES: C[C@H](C#N)c1c[nH]c2ncc(-c3cc4c(c([C@@H]5CCCN5)c3)COCC4)cc12 (single isomer, unassigned) [Compound Z104-1]
- IC50 (HPK1 [1]): 0.62 nM
- IC50 (HPK1 [2]): 126 nM

SMILES: C[C@@H](C#N)c1c[nH]c2ncc(-c3cc4c(c([C@@H]5CCCN5)c3)COCC4)cc12 (single isomer, unassigned) [Compound Z104-2]
- IC50 (HPK1 [1]): 0.74 nM
- IC50 (HPK1 [2]): 197 nM

SMILES: CC(=O)N1CCc2cc(-c3cnc4[nH]cc(C)c4c3)cc([C@@H]3COCCN3)c2C1 (single isomer, unassigned) [Compound Z119-1]
- IC50 (HPK1 [1]): 1.06 nM
- IC50 (HPK1 [2]): 390 nM

SMILES: CC(=O)N1CCc2cc(-c3cnc4[nH]cc(C)c4c3)cc([C@H]3COCCN3)c2C1 (single isomer, unassigned) [Compound Z119-2]
- IC50 (HPK1 [1]): 90 nM

SMILES: CNC(c1ccccc1)c1cc(-c2cnc3[nH]cc(C)c3c2)cc2c1COCC2 (single isomer, unassigned) [Compound Z234-1]
- IC50 (HPK1 [1]): 154 nM

SMILES: CNC(c1ccccc1)c1cc(-c2cnc3[nH]cc(C)c3c2)cc2c1COCC2 (single isomer, unassigned) [Compound Z234-2]
- IC50 (HPK1 [1]): > 1000 nM

SMILES: Cc1c[nH]c2ncc(-c3cc4c(c([C@@H]5COCCN5)c3)CN(C(=O)[C@](C)(O)C(F)(F)F)CC4)cc12 (single isomer, unassigned) [Compound Z309-1]
- IC50 (HPK1 [1]): 0.58 nM

SMILES: Cc1c[nH]c2ncc(-c3cc(C4CCCN4)c4cnccc4c3)cc12 (stereo not drawn) [Compound Z3, 6-(3-methyl-1H-pyrrolo[2,3-b]pyridin-5-yl)-8-(pyrrolidin-2-yl)isoquinoline formate]
- IC50 (HPK1 [1]): 4.34 nM
- IC50 (HPK1 [2]): 853 nM

SMILES: CN1CCc2cc(-c3cnc(N)c(-c4cnn(C)c4)c3)cc(C3CCCN3)c2C1 (stereo not drawn) [Compound Z4, 3-(1-methyl-1H-pyrazol-4-yl)-5-(2-methyl-8-(pyrrolidin-2-yl)-1,2,3,4-tetrahydroisoquinolin-6-yl)pyridin-2-amine]
- IC50 (HPK1 [1]): 48.7 nM
- IC50 (HPK1 [2]): 3570 nM

SMILES: COC(=O)N1CCc2cc(-c3cnc4[nH]cc(C)c4c3)cc([C@@H]3CCCN3)c2C1 [Compound Z34-1]
- IC50 (HPK1 [1]): 0.55 nM
- IC50 (HPK1 [2]): 265 nM

SMILES: Cc1ncc(N2CCc3c(cc(-c4cnc5[nH]cc(C)c5c4)cc3[C@@H]3CCCN3)C2)s1 [Compound Z38-1, (S)-7-(3-methyl-1H-pyrrolo[2,3-b]pyridin-5-yl)-2-(2-methylthiazol-5-yl)-5-(pyrrolidin-2-yl)-1,2,3,4-tetrahydroisoquinoline]
- IC50 (HPK1 [1]): 2.97 nM
- IC50 (HPK1 [2]): 719 nM

SMILES: CN(C)C(=O)c1ccc(-c2c[nH]c3ncc(-c4cc5c(c([C@@H]6CCCN6)c4)COCC5)cc23)cn1 [Compound Z54-1, (S)—N,N-dimethyl-5-(5-(8-(pyrrolidin-2-yl)isochroman-6-yl)-1H-pyrrolo[2,3-b]pyridin-3-yl)pyridine carboxamide]
- IC50 (HPK1 [1]): 0.6 nM
- IC50 (HPK1 [2]): 401 nM

SMILES: Cc1c[nH]c2ncc(-c3cc4c(c([C@@H]5CCCN5)c3)CCOC4)cc12 [Compound Z75-1]
- IC50 (HPK1 [1]): 1.7 nM
- IC50 (HPK1 [2]): 475 nM

SMILES: Cc1c[nH]c2ncc(-c3cc4c(c([C@@H]5CCCN5)c3)CCN(S(C)(=O)=O)C4)cc12 [Compound Z88-1, (S)-7-(3-methyl-1H-pyrrolo[2,3-b]pyridin-5-yl)-2-(methylsulfonyl)-5-(pyrrolidin-2-yl)-1,2,3,4-tetrahydroisoquinoline]
- IC50 (HPK1 [1]): 0.38 nM
- IC50 (HPK1 [2]): 91.3 nM

SMILES: Nc1ncc(-c2cc3c(c(C4CCCN4)c2)COCC3)cc1-c1cn[nH]c1 (stereo not drawn) [Compound Z93, 3-(1H-pyrazol-4-yl)-5-(8-(pyrrolidin-2-yl)isochroman-6-yl)pyridin-2-amine formate]
- IC50 (HPK1 [1]): 1.62 nM
- IC50 (HPK1 [2]): 439 nM

SMILES: Cc1c[nH]c2ncc(-c3cc4c(c(CN5CCOCC5)c3)COCC4)cc12 [Compound Z115, 4-((6-(3-methyl-1H-pyrrolo[2,3-b]pyridin-5-yl)isochroman-8-yl)methyl)morpholine]
- IC50 (HPK1 [1]): 257 nM

SMILES: Cc1c[nH]c2ncc(-c3cc4c(c(N5CCC[C@@H]5CO)c3)COCC4)cc12 [Compound Z116-1, (R)-(1-(6-(3-methyl-1H-pyrrolo[2,3-b]pyridin-5-yl)isochroman-8-yl)pyrrolidin-2-yl)methanol]
- IC50 (HPK1 [1]): 843 nM

SMILES: Cc1c[nH]c2ncc(-c3cc4c(c(N5CCC[C@H]5CO)c3)COCC4)cc12 [Compound Z116-2, (S)-(1-(6-(3-methyl-1H-pyrrolo[2,3-b]pyridin-5-yl)isochroman-8-yl)pyrrolidin-2-yl)methanol]
- IC50 (HPK1 [1]): > 1000 nM

SMILES: Cc1c[nH]c2ncc(-c3cc4c(c([C@@H]5CCCN5)c3)CN(c3ccccn3)CC4)cc12 [Compound Z128, (S)-6-(3-methyl-1H-pyrrolo[2,3-b]pyridin-5-yl)-2-(pyridin-2-yl)-8-(pyrrolidin-2-yl)-1,2,3,4-tetrahydroisoquinoline]
- IC50 (HPK1 [1]): 168 nM

SMILES: Nc1ncc(-c2cc3c(c([C@@H]4CCCN4)c2)COCC3)cc1-c1nncs1 [Compound Z239, 5-[8-[(S)-pyrrolidin-2-yl]isochroman-6-yl]-3-(1,3,4-thiadiazol-2-yl)pyridin-2-amine]
- IC50 (HPK1 [2]): 239 nM

SMILES: Cc1c[nH]c2ncc(-c3cc4c(c(C5CC6(CC6)CN5)c3)COCC4)cc12 (stereo not drawn) [Compound Z240-1, 5-(8-(5-azaspiro[2.4]heptan-6-yl)isochroman-6-yl)-3-methyl-1H-pyrrolo[2,3-b]pyridine]
- IC50 (HPK1 [2]): 770 nM

SMILES: Cc1c[nH]c2ncc(-c3cc4c(c([C@@H]5CC6(CC6)CN5)c3)COCC4)cc12 [Compound Z240]
- IC50 (HPK1 [1]): 2.28 nM

SMILES: Cc1c[nH]c2ncc(-c3cc4c(c([C@@H]5CCCN5)c3)CN(C(=O)c3cnn(CCO)c3)CC4)cc12 [Compound Z281, (S)-(1-(2-hydroxyethyl)-1H-pyrazol-4-yl)(6-(3-methyl-1H-pyrrolo[2,3-b]pyridin-5-yl)-8-(pyrrolidin-2-yl)-3,4-dihydroisoquinolin-2(1H)-yl)methanone]
- IC50 (HPK1 [2]): 2030 nM

SMILES: Cc1cn(C2CC2)nc1C(=O)N1CCc2cc(-c3cnc4[nH]cc(C)c4c3)cc([C@@H]3CCCN3)c2C1 [Compound Z342, (S)-(1-cyclopropyl-4-methyl-1H-pyrazol-3-yl)-[6-(3-methyl-1H-pyrrolo[2,3-b]pyridin-5-yl)-8-[pyrrolidin-2-yl]-3,4-dihydro-2(1H)-isoquinolin-yl]methanone]
- IC50 (HPK1 [2]): 271 nM

SMILES: Cc1cn(C2CC2)nc1C(=O)N1CCc2cc(-c3cnc4[nH]cc(C)c4c3)cc([C@@H]3CCCN3)c2C1 [Compound Z347, (S)-(1-cyclopropyl-4-methyl-1H-pyrazol-3-yl)-[6-(3-methyl-1H-pyrrolo[2,3-b]pyridin-5-yl)-8-[pyrrolidin-2-yl]-3,4-dihydro-1H-isoquinolin-2-yl]methanone]
- IC50 (HPK1 [2]): 319 nM

SMILES: Cc1c[nH]c2ncc(-c3cc4c(c([C@@H]5CCCN5)c3)CN(C(=O)Nc3cn[nH]c3)C4)cc12 [Compound Z385]
- IC50 (HPK1 [2]): 3.3 nM

SMILES: Cc1c[nH]c2ncc(-c3cc4c(c([C@@H]5CCCN5)c3)CN(C(=O)N3C5CCC3COC5)CC4)cc12 [Compound Z388, (3-oxa-8-azabicyclo[3.2.1]octan-8-yl)(6-(3-methyl-1H-pyrrolo[2,3-b]pyridin-5-yl)-8-((S)-pyrrolidin-2-yl)-3,4-dihydroisoquinolin-2(1H)-yl)methanone]
- IC50 (HPK1 [2]): 43.1 nM
